Assay results as given in patent US5202319A, “Substituted 3-amino-2,3,4,5-tetrahydro-1-aryloxy-3-benzazepines” (Hoechst-Roussel Pharmaceuticals Inc., priority 1991, dated 1993).
Counter-ions that a name gives are not always drawn.

How the values were obtained:
serotonin (5HT) uptake = assay: 3H-Serotonin Uptake in Rat Whole Brain and Hypothalamic Synaptosomes; type: biochemical; settings: 50 nM 3H-5HT, 37° C., 5 minutes, log-probit analysis, read-out: Inhibition of ^3 H-serotonin Uptake IC50
Experimental: A. Animals: Male CR Wistar rats (100-125 g).
3. […] This is used to dilute the specific activity of radiolabeled 5HT.
The final desired concentration of ^3 H-5HT in the assay is 50 nM. The dilution factor is 0.8.
Male Wistar rats are decapitated and the brain rapidly removed. […] Homogenization should be done with 4-5 up and down strokes at medium speeds to minimize synaptosome lysis. […] The supernatant (S1) is decanted and is used for uptake experiments.
Tubes are incubated at 37° C. under a 95% O2 /5% CO2 atmosphere for 5 minutes. For each assay, 3 tubes are incubated with 20 μl of vehicle at 0° C. in an ice bath. After incubation all tubes are immediately centrifuged at 4000 g for 10 minutes. The supernatant fluid is aspirated and the pellets dissolved by adding 1 ml of solubilizer (Triton X-100+50% EtOH, 1:4 v/v). […] Active uptake is the difference between cpm at 37° C. and 0° C. […] IC50 values are derived from log-probit analysis.

[1] = in vivo; cited from earlier work
5HT uptake sites = settings: in vitro; cited from earlier work
[^3 H]-5HT transport = CNS tissue; cited from earlier work
5HT uptake = settings: cited from earlier work

NN1CCc2ccccc2C(Oc2ccc(C(F)(F)F)cc2)C1 (stereo not drawn) [3-Amino-2,3,4,5-tetrahydro-1-(4-trifluoromethylphenoxy)-3-benzazepine maleate]
IC50 (serotonin (5HT) uptake): 9.36 µM

COc1cc2c(cc1OC)C(Oc1ccccc1)CN(N)CC2 (stereo not drawn) [3-Amino-7,8-dimethoxy-1-phenoxy-2,3,4,5-tetrahydro-3-benzazepine maleate]
IC50 (serotonin (5HT) uptake): 2.13 µM

O=c1n(CCCN2CCN(c3cccc(Cl)c3)CC2)nc2ccccn12 [Trazodone]
clinical effectiveness [1]: clinically effective antidepressants

CN(C)CCCN1c2ccccc2CCc2ccccc21 [[^3 H]-imipramine]
[^3 H]-imipramine binding (5HT uptake sites): labels 5HT uptake sites

C[C@@H]1O[C@@H](O[C@H]2C[C@@H](O)[C@]3(CO)[C@H]4[C@H](O)C[C@]5(C)[C@@H](C6=CC(=O)OC6)CC[C@]5(O)[C@@H]4CC[C@]3(O)C2)[C@H](O)[C@H](O)[C@H]1O [ouabain]
inhibition of [^3 H]-5HT transport ([^3 H]-5HT transport): inhibited

CN(C)C/C=C(/c1ccc(Br)cc1)c1cccnc1 [zimelidine]
effects on 5HT uptake (5HT uptake): fairly selective effects on 5HT uptake
